Data: patent publication US10576064B2, “Spiro[3H-indole-3,2′-pyrrolidin]-2(1H)-one compounds and derivatives as MDM2-P53 inhibitors” (Boehringer Ingelheim International GmbH, priority 2014, dated 2020)

What follows are molecules tested against p53-MDM2 interaction (GST-MDM2 protein aa 23-117 / biotinylated p53 wt peptide) (Homo sapiens (Human), UniProt Q00987) (assay: MDM2-p53 Inhibition AlphaScreen). Details: 20 nM GST-MDM2 (aa 23-117), 20 nM biotinylated p53 wt peptide.
Assay type: biochemical
Description: MDM2-p53 Inhibition AlphaScreen

Compound | IC50 [nM]
NC(=O)c1ccc(N2CC[C@H]3[C@@H](C2=O)[C@H](c2cccc(Cl)c2F)[C@]2(C(=O)Nc4cc(Cl)ccc42)N3CC2CC2)cc1 [Compound I-268] | 26
O=C(O)c1ccc(N2C[C@H]3[C@@H](C2=O)[C@H](c2cccc(Br)c2F)[C@]2(C(=O)Nc4cc(Cl)ccc42)N3CC2CC2)cc1F [Compound I-254] | 9
O=C(O)c1ccc(-c2cc(Cl)c(F)c([C@H]3[C@@H]4C(=O)NCC[C@@H]4N(CC4CC4)[C@@]34C(=O)Nc3cc(Cl)ccc34)c2)cc1 [Compound I-290] | 36
CNC(=O)c1ccc(N2C[C@H]3[C@@H](C2=O)[C@H](c2cccc(Cl)c2F)[C@]2(C(=O)Nc4cc(Cl)ccc42)N3CC2CC2)cc1 [Compound I-287] | 8
O=C1NCC[C@H]2[C@@H]1[C@H](c1cccc(Cl)c1F)[C@]1(C(=O)Nc3cc(Cl)ccc31)N2CC1CC1 [Compound I-1] | 86
CC1CC1CN1[C@H]2CCNC(=O)[C@H]2[C@H](c2cccc(Cl)c2F)[C@]12C(=O)Nc1cc(Cl)ccc12 (stereo partly drawn) [Compound I-13] | 272
CCOC(=O)CNc1ccc(N2CC[C@H]3[C@@H](C2=O)[C@H](c2cccc(Cl)c2F)[C@]2(C(=O)Nc4cc(Cl)ccc42)N3CC2CC2)cc1 [Compound I-304] | 192
COC(=O)c1ccc(N2CC[C@H]3[C@@H](C2=O)[C@H](c2cccc(Cl)c2F)[C@]2(C(=O)Nc4cc(Cl)ccc42)N3CC2CC2C)c(OC)c1 (stereo partly drawn) [Compound I-82] | 1020
O=C(O)c1ccc(N2C[C@@H]3[C@H](C2=O)[C@@H](c2cccc(Cl)c2F)[C@@]2(C(=O)Nc4cc(Cl)ccc42)N3CC2CCCC2)cc1 [Compound I-236] | 488
CCOc1cccc(CN2[C@H]3CN(c4ccc(C(=O)NO)cc4)C(=O)[C@H]3[C@H](c3cccc(Cl)c3F)[C@]23C(=O)Nc2cc(Cl)ccc23)c1 [Compound I-283] | 4
COC(=O)c1ccc(N2C[C@H]3[C@@H](C2=O)[C@H](c2cccc(Cl)c2F)[C@]2(C(=O)Nc4cc(Cl)ccc42)N3CC2CC2)c(OC)c1 [Compound I-125] | 347
O=C(O)c1ccc(N2C[C@@H]3[C@H](C2=O)[C@@H](c2cccc(Cl)c2F)[C@@]2(C(=O)Nc4cc(Cl)ccc42)N3CC2CCC2)cc1 [Compound I-223] | 271
CNC(=O)c1ccc(N2CC[C@H]3[C@@H](C2=O)[C@H](c2cccc(Cl)c2F)[C@]2(C(=O)Nc4cc(Cl)ccc42)N3CC2CC2)cc1 [Compound I-270] | 27
COc1cc(C(=O)O)ccc1N1CC[C@H]2[C@@H](C1=O)[C@H](c1cccc(Cl)c1F)[C@]1(C(=O)Nc3cc(Cl)ccc31)N2CC1CC1C (stereo partly drawn) [Compound I-194] | 114
O=C1[C@@H]2[C@H](CCN1c1ccc(-c3nnn[nH]3)cc1)N(CC1CC1)[C@@]1(C(=O)Nc3cc(Cl)ccc31)[C@H]2c1cccc(Cl)c1F [Compound I-72] | 17
Cc1ccc2c(c1)NC(=O)[C@]21[C@@H](c2cccc(Cl)c2F)[C@@H]2C(=O)NCC[C@@H]2N1CC1CC1 [Compound I-23] | 290
O=C(O)c1ccc(N2CC[C@H]3[C@@H](C2=O)[C@H](c2cccc(Cl)c2F)[C@]2(C(=O)Nc4cc(Cl)ccc42)N3CC2CC2)c(O)c1 [Compound I-264] | 49
CC1CC1CN1[C@H]2CCN(c3ccc(C(=O)O)cc3F)C(=O)[C@H]2[C@H](c2cccc(Cl)c2F)[C@]12C(=O)Nc1cc(Cl)ccc12 (stereo partly drawn) [Compound I-190] | 45
O=C1NC[C@H]2[C@@H]1[C@H](c1cccc(Cl)c1F)[C@]1(C(=O)Nc3cc(Cl)ccc31)N2CC1CC1 [Compound I-40] | 33
O=C1NCC[C@H]2[C@@H]1[C@H](c1cccc(Cl)c1F)[C@]1(C(=O)Nc3cc(I)ccc31)N2CC1CC1 [Compound I-25] | 324
O=C(O)c1ccc(CN2C[C@H]3[C@@H](C2=O)[C@H](c2cccc(Cl)c2F)[C@]2(C(=O)Nc4cc(Cl)ccc42)N3CC2CC2)cc1 [Compound I-242] | 37
COCCN1[C@H]2CN(c3ccc(C(=O)O)cc3)C(=O)[C@H]2[C@H](c2cccc(Cl)c2F)[C@]12C(=O)Nc1cc(Cl)ccc12 [Compound I-224] | 17
O=C(O)c1ccc(CN2CC[C@H]3[C@@H](C2=O)[C@H](c2cccc(Cl)c2F)[C@]2(C(=O)Nc4cc(Cl)ccc42)N3CC2CC2)cc1 [Compound I-208] | 210
O=C1NCC[C@H]2[C@@H]1[C@H](c1cccc(Cl)c1F)[C@]1(C(=O)Nc3cc(Cl)c(F)cc31)N2CC1CC1 [Compound I-17] | 324
CC(C)(C)CN1[C@H]2CCN(c3ccc(S(C)(=O)=O)cc3)C(=O)[C@H]2[C@H](c2cccc(Cl)c2F)[C@]12C(=O)Nc1cc(Cl)ccc12 [Compound I-74] | 342
Cc1cc(N2C[C@H]3[C@@H](C2=O)[C@H](c2cccc(Cl)c2F)[C@]2(C(=O)Nc4cc(Cl)ccc42)N3CC2CC2)ccc1C(=O)O [Compound I-261] | 5
CS(=O)(=O)Nc1ccc(N2C[C@H]3[C@@H](C2=O)[C@H](c2cccc(Cl)c2F)[C@]2(C(=O)Nc4cc(Cl)ccc42)N3CC2CC2)cc1F [Compound I-302] | 37

Compound | IC50 [nM]
CCOc1cccc(CN2[C@H]3CCNC(=O)[C@H]3[C@H](c3cccc(Cl)c3F)[C@]23C(=O)Nc2cc(Cl)ccc23)c1 [Compound I-5] | 17
O=C(O)c1ccc(N2C[C@H]3[C@@H](C2=O)[C@H](c2cccc(Br)c2F)[C@]2(C(=O)Nc4cc(Cl)ccc42)N3CC2CC2)cc1 [Compound I-252] | 9
O=C(O)c1ccc(N2C[C@H]3[C@@H](C2=O)[C@H](c2cccc(Cl)c2F)[C@]2(C(=O)Nc4cc(Cl)ccc42)N3CC2CC(F)(F)C2)cc1 [Compound I-230] | 5
O=C(O)c1ccc(N2CC[C@H]3[C@@H](C2=O)[C@H](c2cccc(Cl)c2F)[C@]2(C(=O)Nc4cc(Cl)ccc42)N3CC2CC2)cc1 [Compound I-171] | 4
CCOc1cccc(CN2[C@H]3CCN(c4ccc(C(=O)O)cc4)C(=O)[C@H]3[C@H](c3cccc(Cl)c3F)[C@]23C(=O)Nc2cc(Cl)ccc23)c1 [Compound I-186] | 2
CON(C)C(=O)c1ccc(N2CC[C@H]3[C@@H](C2=O)[C@H](c2cccc(Cl)c2F)[C@]2(C(=O)Nc4cc(Cl)ccc42)N3CC2CC2)cc1 [Compound I-278] | 33
CC(=O)Nc1ccc(N2CC[C@H]3[C@@H](C2=O)[C@H](c2cccc(Cl)c2F)[C@]2(C(=O)Nc4cc(Cl)ccc42)N3CC2CC2)cc1 [Compound I-296] | 58
NC(=O)c1ccc(N2C[C@H]3[C@@H](C2=O)[C@H](c2cccc(Cl)c2F)[C@]2(C(=O)Nc4cc(Cl)ccc42)N3CC2CC2)cc1 [Compound I-280] | 7
O=C(O)c1ccc(N2CC[C@H]3[C@@H](C2=O)[C@H](c2cccc(Cl)c2)[C@]2(C(=O)Nc4cc(Cl)ccc42)N3CC2CC2)cc1 [Compound I-177] | 16
COc1cc(N2C[C@H]3[C@@H](C2=O)[C@H](c2cccc(Cl)c2F)[C@]2(C(=O)Nc4cc(Cl)ccc42)N3CC2CC2)ccc1C(=O)O [Compound I-258] | 4
O=C(O)c1ccc(N2CC[C@H]3[C@@H](C2=O)[C@H](c2cccc(Cl)c2F)[C@]2(C(=O)Nc4cc(Br)ccc42)N3CC2CC2)cc1 [Compound I-204] | 15
CNS(=O)(=O)c1ccc(N2CC[C@H]3[C@@H](C2=O)[C@H](c2cccc(Cl)c2F)[C@]2(C(=O)Nc4cc(Cl)ccc42)N3CC2CC2)cc1 [Compound I-80] | 93
O=C1NCC[C@H]2[C@@H]1[C@H](c1cc(Br)cc(Cl)c1F)[C@]1(C(=O)Nc3cc(Cl)ccc31)N2CC1CC1 [Compound I-11] | 462
CCOc1cccc(CN2[C@H]3CCN(c4ccc(C(=O)O)cc4[N+](=O)[O-])C(=O)[C@H]3[C@H](c3cccc(Cl)c3F)[C@]23C(=O)Nc2cc(Cl)ccc23)c1 [Compound I-188] | 16
CCOc1cccc(CN2[C@@H]3CCN(c4ccc(C(=O)OC)cc4)C(=O)[C@@H]3[C@@H](c3cccc(Cl)c3F)[C@@]23C(=O)Nc2cc(Cl)ccc23)c1 [Compound I-112] | 3290
O=C(O)c1ccc(N2C[C@H]3[C@@H](C2=O)[C@H](c2cccc(Cl)c2F)[C@]2(C(=O)Nc4cc(Cl)ccc42)N3CC2CCC2)cc1 [Compound I-221] | 7
COC(=O)c1ccc(N2CC[C@H]3[C@@H](C2=O)[C@H](c2cccc(Cl)c2F)[C@]2(C(=O)Nc4cc(Cl)ccc42)N3CC2CC2)cc1 [Compound I-63] | 103
CS(=O)(=O)Nc1ccc(N2CC[C@H]3[C@@H](C2=O)[C@H](c2cccc(Cl)c2F)[C@]2(C(=O)Nc4cc(Cl)ccc42)N3CC2CC2)cc1 [Compound I-300] | 98
COC(=O)c1ccc(N2CC[C@H]3[C@@H](C2=O)[C@H](c2cccc(Cl)c2F)[C@]2(C(=O)Nc4cc(Cl)ccc42)N3CC2CC2C)c(F)c1 (stereo partly drawn) [Compound I-84] | 1180
O=C(O)c1ccc(N2C[C@H]3[C@@H](C2=O)[C@H](c2ccnc(Cl)c2F)[C@]2(C(=O)Nc4cc(Cl)ccc42)N3CC2CC2)cc1 [Compound I-244] | 4
O=C1NCC[C@H]2[C@@H]1[C@H](c1cccc(Cl)c1)[C@]1(C(=O)Nc3cc(Cl)ccc31)N2CC1CC1 [Compound I-3] | 263
CC1CC1CN1[C@H]2CCN(c3ccc(C(=O)O)cc3)C(=O)[C@H]2[C@H](c2cccc(Cl)c2F)[C@]12C(=O)Nc1cc(Cl)ccc12 (stereo partly drawn) [Compound I-196] | 20
O=C(O)c1csc(N2C[C@H]3[C@@H](C2=O)[C@H](c2cccc(Cl)c2F)[C@]2(C(=O)Nc4cc(Cl)ccc42)N3CC2CC2)n1 [Compound I-233] | 9
O=CNc1ccc(N2CC[C@H]3[C@@H](C2=O)[C@H](c2cccc(Cl)c2F)[C@]2(C(=O)Nc4cc(Cl)ccc42)N3CC2CC2)cc1 [Compound I-298] | 86
CC(C)(C)CN1[C@H]2CCNC(=O)[C@H]2[C@H](c2cccc(Cl)c2F)[C@]12C(=O)Nc1cc(Cl)ccc12 [Compound I-15] | 152
CCOc1cccc(CN2[C@H]3CN(c4ccc(C(N)=O)cc4)C(=O)[C@H]3[C@H](c3cccc(Cl)c3F)[C@]23C(=O)Nc2cc(Cl)ccc23)c1 [Compound I-284] | 3
COc1cc(C(=O)O)ccc1N1C[C@H]2[C@@H](C1=O)[C@H](c1cccc(Cl)c1F)[C@]1(C(=O)Nc3cc(Cl)ccc31)N2CC1CC1 [Compound I-219] | 31
